Measured values published in the NIST ThermoML archive (doi:10.1021/je050092d).
Numbers after ± are expanded uncertainties.

Details: for molar entropy: 101.33 kPa, Vacuum adiabatic calorimetry

CCCCCCCCCCCCCCCCCC(=O)OCC(COC(=O)CCCCCCCCCCCCCCCCC)OC(=O)CCCCCCCCCCCCCCCCC [glycerol trioctadecanoate]
Details | Normal melting temperature [°C] | Triple point temperature [K] | molar entropy [J/K/mol]
10 K, Crystal | – | – | 5.349 ± 0.89
20 K, Crystal | – | – | 32.09 ± 0.89
30 K, Crystal | – | – | 74.88 ± 0.89
40 K, Crystal | – | – | 130.16 ± 1.8
50 K, Crystal | – | – | 188.99 ± 2.7
60 K, Crystal | – | – | 251.4 ± 3.6
70 K, Crystal | – | – | 315.58 ± 4.5
80 K, Crystal | – | – | 380.66 ± 6.2
90 K, Crystal | – | – | 443.96 ± 7.1
100 K, Crystal | – | – | 504.58 ± 8
110 K, Crystal | – | – | 562.52 ± 8.9
120 K, Crystal | – | – | 618.69 ± 8.9
130 K, Crystal | – | – | 673.07 ± 9.8
140 K, Crystal | – | – | 726.56 ± 11
150 K, Crystal | – | – | 778.26 ± 12
160 K, Crystal | – | – | 829.97 ± 12
170 K, Crystal | – | – | 879.89 ± 13
180 K, Crystal | – | – | 929.81 ± 14
190 K, Crystal | – | – | 978.84 ± 15
200 K, Crystal | – | – | 1028.8 ± 15
210 K, Crystal | – | – | 1077.8 ± 16
220 K, Crystal | – | – | 1125.9 ± 17
230 K, Crystal | – | – | 1173.2 ± 18
240 K, Crystal | – | – | 1219.5 ± 19
250 K, Crystal | – | – | 1266.8 ± 19
260 K, Crystal | – | – | 1314 ± 20
270 K, Crystal | – | – | 1361.3 ± 21
280 K, Crystal | – | – | 1408.5 ± 18
290 K, Crystal | – | – | 1456.7 ± 22
298.15 K, Crystal | – | – | 1495.9 ± 22
300 K, Crystal | – | – | 1504.8 ± 22
310 K, Crystal | – | – | 1553.8 ± 23
320 K, Crystal | – | – | 1603.8 ± 24
330 K, Crystal | – | – | 1655.5 ± 25
Crystal, Adiabatic calorimetry | – | 345.94 ± 0.04 | –
Metastable crystal, Adiabatic calorimetry | 54.2 ± 0.1 | – | –
